According to US20050090498A1, “3-Quinolin-2(1h)-ylideneindolin-2-one derivative” (priority 2001, published 2005):

Assays:
[1] = tested on: Human umbilical vein endothelial cells (HUVEC), VEGF-stimulated; assay: Test on the inhibition of VEGF-stimulated HUVEC growth ([3H]thymidine incorporation); assay type: cell-based; details: human recombinant VEGF 10 ng/ml
Procedure: Test method: (Cell culture) Human umbilical vein endothelial cells (HUVEC) were cultured using EGM-2 complete medium (Clonetics) which had been supplemented with additives (2% FBS, 0.4% FGF (fibroblast growth factor), 0.1% VEGF, 0.1% IGF-I (insulin like growth factor-I), 0.1% EGF (epidermal growth factor), 0.1% ascorbic acid, 0.1% GA-1000, 0.1% heparin and 0.04% hydrocortisone).
(Evaluation of compounds) HUVEC (10,000 cells/well) were inoculated into EGM-2 complete medium in a gelatin-coated 96 well plate (mfd. by IWAKI) and cultured overnight. After washing with a physiological phosphate buffer, the medium was exchanged with a low serum medium (Medium 199/0.1% FBS) and the culturing was continued for 24 hours. Each of the compounds to be evaluated was prepared as a 10 mM DMSO solution and diluted with the low serum medium. This was added to each well to a final concentration of from 0.001 to 10 μM. After 2 hours of the compound treatment, human recombinant VEGF (R & D Systems) was added to a final concentration of 10 ng/ml. After 18 hours, [^3H]thymidine (Amersham Pharmacia) was added in 5 μCi/well portions. After 4 hours, the reaction was terminated by adding 0.2% SDS in 50 μl/well portions, and the product was recovered on GF/C Unifilter (Packard). After adding 25 μl of Microscinti 20 (Packard), the radioactivity incorporated into the DNA trapped on the filter was measured using TopCount (Packard). The IC50 of the inhibitory activity of each compound was calculated as the 50% inhibition concentration (IC50 value) of each compound to be tested, by defining the incorporated amount of [^3H]thymidine at the time of VEGF addition as 100%, and its incorporated amount at the time of no addition of VEGF as 0%.

[2] = tested on: Human umbilical vein endothelial cells (HUVEC), VEGF-stimulated; assay: as above; assay type: cell-based; details: human recombinant VEGF 10 ng/ml; remark: listed apart in the source

Row | SMILES | IC50 [1] | IC50 [2]
1 | CCOC(=O)CNC(=O)c1ccc2c(c1)C=CC(=C1C(=O)Nc3ccccc31)N2 [Example 146] | 76 nM | 
2 | COCCOc1ccc2c(c1)C=CC(=C1C(=O)Nc3ccccc31)N2 [Example 58] | 34 nM | 
3 | CC(=O)Oc1ccc2c(c1)NC(=O)C2=C1C=Cc2ccccc2N1 [Example 265] | 180 nM | 
4 | CCN(CC)CCNC(=O)C1=CC(=C2C(=O)Nc3ccccc32)Nc2ccccc21 [Example 160] | 46 nM | 
5 | O=C1Nc2ccc(F)cc2C1=C1C=Cc2ccccc2N1 [Example 213] | 0.97 nM | 
6 | O=C1Nc2cc(Cl)ccc2C1=C1C=Cc2ccccc2N1 [Example 217] | 11 nM | 
7 | CC1=CC(=C2C(=O)Nc3ccccc32)Nc2ccccc21 [Example 38] | 38 nM | 
8 | O=C1Nc2ccccc2C1=C1C=Cc2cc(OCCN3CCS(=O)(=O)CC3)ccc2N1 [Example 80] | 100 nM | 
9 | CCOC(=O)C1CCN(CCOc2ccc3c(c2)C=CC(=C2C(=O)Nc4ccccc42)N3)CC1 [Example 79] | 100 nM | 
10 | O=C1Nc2ccccc2C1=C1C=Cc2ccc(OCCN3CCOCC3)cc2N1 [Example 102] | 410 nM | 
11 | O=C(CCc1ccc2c(c1)C=CC(=C1C(=O)Nc3ccccc31)N2)NOCC1CC1 [Example 144] | 93 nM | 
12 | CCOC(=O)CCC1=CC(=C2C(=O)Nc3ccccc32)Nc2ccccc21 [Example 39] | 32 nM | 
13 | CN(C)CCN(C)CCOc1ccc2c(c1)C=CC(=C1C(=O)Nc3ccccc31)N2 [Example 86] | 100 nM | 
14 | O=C1Nc2ccccc2C1=C1C=Cc2cc(OC(=O)c3ccccc3)ccc2N1 [Example 36] | 160 nM | 
15 | CCOCc1ccc2c(c1)NC(=O)C2=C1C=Cc2ccccc2N1 [Example 259] | 71 nM | 
16 | N#Cc1ccc2c(c1)NC(=O)C2=C1C=Cc2cc(OCCN3CCOCC3)ccc2N1 [Example 295] | 33 nM | 
17 | CCOC(=O)c1ccc2c(c1)C(=C1C=Cc3ccccc3N1)C(=O)N2 [Example 239] | 310 nM | 

Row | SMILES | IC50 [1] | IC50 [2]
18 | COc1ccc2c(c1)C=CC(=C1C(=O)Nc3ccccc31)N2 [Example 37] | 310 nM | 
19 | O=C1Nc2ccc([N+](=O)[O-])cc2C1=C1C=Cc2ccccc2N1 [Example 284] | 360 nM | 
20 | O=C1Nc2ccccc2C1=C1C=Cc2cc(OCCN3CCC(n4c(=O)[nH]c5ccccc54)CC3)ccc2N1 [Example 81] | 68 nM | 
21 | COc1cc2c(cc1CCCN1CCOCC1)NC(=C1C(=O)Nc3ccccc31)C=C2 [Example 77] | 160 nM | 
22 | O=C(NCCN1CCOCC1)C1=CC(=C2C(=O)Nc3ccccc32)Nc2ccccc21 [Example 159] | 38 nM | 
23 | O=C1Nc2cnc(Cl)nc2/C1=C1\C=Cc2ccccc2N1 [Example 361] |  | 24 nM
24 | O=C1Nc2ccccc2C1=C1C=Cc2cc(OCC(=O)N3CCOCC3)ccc2N1 [Example 8, 3-[6-(2-morpholin-4-yl-2-oxoethoxy)quinolin-2(1H)-ylidene]indolin-2-one] |  | 170 nM
25 | CCOC(=O)c1cc2c(cc1C)C(=C1C=Cc3ccccc3N1)C(=O)N2 [Example 222] | 6.8 nM | 
26 | O=C1Nc2ccc(Cl)cc2C1=C1C=Cc2ccccc2N1 [Example 283] | 84 nM | 
27 | CCN(CC)CCOc1ccc2c(c1)C(=C1C=Cc3ccccc3N1)C(=O)N2 [Example 286] | 750 nM | 
28 | O=C1Nc2ccccc2C1=C1C=Cc2cc(CO)ccc2N1 [Example 14, 3-(6-hydroxymethylquinolin-2(1H)-ylidene)indolin-2-one] |  | 300 nM
29 | CCOC(=O)c1cc2c(cc1Cl)C(=C1C=Cc3cc(OCCN4CCOCC4)ccc3N1)C(=O)N2 [Example 298] | 50 nM | 
30 | CN1CCC(COc2ccc3c(c2)C=CC(=C2C(=O)Nc4ccccc42)N3)CC1 [Example 15, 3-{6-[(1-methylpiperidin-4-yl)methoxy]quinolin-2(1H)-ylidene}indolin-2-one] |  | 320 nM
31 | O=C1Nc2ccccc2C1=C1C=Cc2cc(OCCn3ccnn3)ccc2N1 [Example 1, 3-{6-[2-(1H-1,2,3-triazol-1-yl)ethoxy]quinolin-2(1H)-ylidene}indolin-2-one] |  | 210 nM
32 | CN(C)[C@H]1CCCC1Nc1ncc2c(n1)/C(=C1\C=Cc3ccccc3N1)C(=O)N2 (stereo partly shown) [Example 354] |  | 140 nM
33 | O=C1Nc2cc(C(=O)O)ccc2C1=C1C=Cc2ccccc2N1 [Example 25, 2-oxo-3-quinolin-2(1H)-ylideneindoline-6-carboxylic acid] |  | 380 nM
34 | O=C1Nc2ccccc2C1=C1C=Cc2cc(OCCNC3CCC(O)CC3)ccc2N1 (stereo not shown) [Example 57] | 720 nM | 
